Data taken from US20120070401A1, “Composition and Method for Promoting Wound Healing” (priority 2010, published 2012).

Tested on: corneal reepithelialization
Experiment: rabbit corneal wound healing model (corneal reepithelialization after 9.5-mm epithelial wound, fluorescein-stained wound area)
Assay type: in vivo, New Zealand White rabbits
Conditions: n=10 per group
From the text: Animals. One hundred and ten pathogen-free New Zealand White rabbits were obtained from a commercial laboratory. Animals were at least 18 weeks old and 2-3 kg body weight at the time of treatment.
Pre-Treatment Examinations. Prior to placement on study, each animal underwent a pre-treatment ophthalmic examination (slit lamp with fluorescein staining). […] Animals were then randomly assigned to eleven treatment groups (10 animals per group) according to a modified Latin square design. Animals were fasted at least 12 hours prior to corneal wound surgery.
Wounding Procedure. […]
Corneal Wound Evaluation. The corneal wound condition was evaluated immediately post wounding and at 12, 24, 36, 48, 60, and 72 hours. […] From the photographs, the perimeter of the wounds was determined using a Mechanical Polar Planimeter (LASISCO; Los Angeles, Calif.).
Numerical results were expressed as mean±SEM, n=10, unless indicated otherwise. Data were analyzed by a two-way ANOVA with repeated measures followed by the Tukey-Kramer test. In addition, overall effects were evaluated by analyzing integrated responses calculated as the areas under the curve (AUC) for each treatment over the time course. […] Integrated responses were analyzed by a one-way ANOVA followed by the Tukey-Kramer test. […]

benzalkonium chloride [BAK]
integrated wound area (AUC over the time course) compared to the saline control (0 to 72 hours, trapezoidal rule): no significant effects | effect on corneal reepithelialization time-course (wound area) compared to the saline control (topical, 14 instillations over 72 hours, time points 12-72 hours): No significant effects
